Measured values taken from ChEMBL document CHEMBL1147640, “Antitumor agents. Part 232: Synthesis of cyclosulfite podophyllotoxin analogues as novel prototype antitumor agents” (2004).

Tests used:
Settings in all cases: Homo sapiens, read-out: ED50 (the source's name)
[1] = test system: SK-MEL-2; test: Effective dose of compound against replication of SK-MEL-2 cell line was evaluated; format: functional
[2] = test system: KB; test: Effective dose of compound against replication of KB cell line was evaluated; format: functional
[3] = test system: 1A9; test: Effective dose of compound against replication of 1A9 cell line was evaluated; format: functional
[4] = test system: HOS; test: Effective dose of compound against replication of HOS cell line was evaluated; format: functional
[5] = test system: HCT-8; test: Effective dose of compound against replication of HCT-8 cell line was evaluated; format: functional
[6] = test system: KB; test: Effective dose of compound against replication of KB/7d cell line was evaluated; format: functional
[7] = test system: U-87 MG; test: Effective dose of compound against replication of U87MG cell line was evaluated; format: functional, U-87MG ATCC
[8] = test system: A549; test: Effective dose of compound against replication of A549 cell line was evaluated; format: functional
[9] = test system: KB; test: Effective dose of compound against replication of KB-Vin cell line was evaluated; format: functional
[10] = test system: PC-3; test: Effective dose of compound against replication of PC-3 cell line was evaluated; format: functional
[11] = test system: MCF7; test: Effective dose of compound against replication of MCF-7 cell line was evaluated; format: functional

Row | SMILES | EC50 [1] [µM] | EC50 [2] [µM] | EC50 [3] [µM] | EC50 [4] [µM] | EC50 [5] [µM] | EC50 [6] [µM] | EC50 [7] [µM] | EC50 [8] [µM] | EC50 [9] [µM] | EC50 [10] [µM] | EC50 [11] [µM]
1 | COc1cc([C@@H]2c3cc4c(cc3[C@@H](Nc3ccc([N+](=O)[O-])cc3)[C@H]3COC(=O)[C@H]23)OCO4)cc(OC)c1O | 3 | 3.5 | < 1.6 | < 1.6 | 1.6 | 1.5 | 5.5 | < 0.1 | 4.1 | 8.9 | 24.5
2 | COc1cc([C@@H]2c3cc4c(cc3[C@@H](Nc3ccc([N+](=O)[O-])cc3)[C@H]3COS(=O)OC[C@H]23)OCO4)cc(OC)c1O (some centres not stated) | 7.9 | 5.1 | 4.2 | 6 | 10 | 2.9 | 8 | 8 | 7.1 | > 20 | 2.5
